In publication PMC9774750, “Phenolic Fingerprinting and Bioactivity Profiling of Extracts and Isolated Compounds from Gypothamnium pinifolium Phil” (Antioxidants, 2022):
“Also recorded” adds a separate entry of the source.

Columns and labels:
HeLa cells (cervix) = assay: Antiproliferative activity (SRB), HeLa; format: cell-based; details: 48 h; for GI50 / TGI (total growth inhibition) against HeLa cells: SRB; for GI50: means ± SEM, n = 3; for LC50 (50% lethal concentration): read-out: LC50 against HeLa cells
Method: (§1) Stock solutions in DMSO of the samples were prepared to dissolve the plant extract at a concentration of 100 mg/mL and the pure compounds 1–2 at 40 mM. For the antiproliferative activity tests, human solid tumor cells (100 µL) were seeded onto 96-well plates at a density of 2500 (A549, HBL-100, HeLa, and SW1573) or 5000 (T-47D, and WiDr) cells/well.
(§2) On the next day, the samples were added to the cell cultures in triplicate at decimal dilutions in the range 250 to 2.5 µg/mL for the extracts and 100 to 0.001 µM for compounds 1–2. Control cells were exposed to an equivalent amount of DMSO (0.25% v/v, negative control). Cells were incubated for an additional 48 h, after which time they were precipitated with 25 μL of ice-cold TCA (50% w/v) and fixed for 60 min at 4 °C [20]. Following sulforhodamine B staining, the optical density (OD) of each well was measured at 530 nm using a BioTek Power Wave XS absorbance microplate reader. Values were corrected with the background OD of the wells containing the control. […] The cell lines used in this study were kindly provided by Prof. Godefridus J. Peters (VUmc, Amsterdam, The Netherlands).

HBL-100 cells (breast) = assay: Antiproliferative activity (SRB), HBL-100; format: cell-based, human; details: means ± SEM, n = 3
Method: as §1, §2

SW1573 cells (lung) = assay: Antiproliferative activity (SRB), SW1573; format: cell-based, human; details: means ± SEM, n = 3
Method: as §1, §2

WiDr cells (colon) = assay: Antiproliferative activity (SRB), WiDr; format: cell-based, human; details: 48 h, means ± SEM, n = 3
Method: as §1, §2

A549 cells (lung) = assay: Antiproliferative activity (SRB), A549; format: cell-based, human; details: means ± SEM, n = 3
Method: as §1, §2

T-47D cells (breast) = assay: Antiproliferative activity (SRB), T-47D; format: cell-based, human; details: 48 h, means ± SEM, n = 3
Method: as §1, §2

intact rat aorta = assay: Vascular reactivity, relaxation of PE pre-contracted aortic rings; set-up: species or system Sprague Dawley rats; details: 10^−9–10^−4 M, pre-contracted with 10^−6 M PE, three experiments
Method: The investigation was conducted according to the local ethics research committee of Universidad de Antofagasta, which ratified the experimental procedures (CEIC #275/2020 and CEIC #366/2022) for the use of a normotensive animal model (n = 3–6). The characteristics of the animals were as follows: male Sprague Dawley rats, six to eight weeks old, weighing between 170 and 200 g. The animals were kept at room temperature (22–25 °C) with 45–51% of humidity with ad libitum free-choice access to tap water and food and were randomized.
All the animals were euthanized by cervical dislocation and immediately proceeded to dissection of the aorta. Then the vascular tissue was arranged in organ baths that were filled with Krebs-Ringer bicarbonate solution pH 7.4 and remained at 37 °C with a constant flux of gas (95% O2 and 5% CO2). Once the tissue was stabilized and the integrity of the vascular endothelium was evaluated, the aortic rings were pre-contracted with 10^−6 M phenylephrine (PE), and after ten minutes, increasing concentrations of G. pinifolium extract, 2-nor-1,2-secolycoserone or ent-labda-8,13-E-diene-15-ol were added in the organ bath.
The data acquired from vascular reactivity assays were expressed as average ± standard error of the mean (SEM). One-way analysis of variance (ANOVA) followed by the Dunnett test was employed for statistical data analysis. […]

[1] = biological target: T1, butyrylcholinesterase (BChE) (Equus caballus, UniProt P81908); assay: biochemical; details: means ± SD, n = 3; read-out: BChE Inhibition IC50 (converted)
T1 construct: purchased Sigma-Aldrich Chem. Co. (St. Louis, MO, USA); host or cells: equine serum
Method: (§3) The systems Arium 126 61316-RO and Arium 611 UV unit (Sartorius, Goettingen, Germany) were employed to get the ultra-pure water. […] Formic acid, methanol, ethyl acetate, and n-hexane of HPLC grade were obtained from Merk® (Santiago, Chile).
(§4) The Ellman method was used for the determination of the inhibitory potential against AChE and BChE. The enzymes were dissolved in Tris-HCl buffer 50 mM at pH 8.0 at the final concentration of 0.26 U/mL, and samples were prepared at 2 mg/mL and dissolved in buffer. […] Finally, to start the reaction, we added 20 µL of the substrate (acetyl-thiocholine iodide for AChE inhibition or butyryl-thiocholine chloride for BChE inhibition assays), and the absorbance was recorded at 405 nm for half an hour at 37 °C. The analysis was performed in triplicate, and the results are expressed as IC50.

[2] = biological target: T2, acetylcholinesterase (AChE) (Electrophorus electricus, UniProt O42275); assay: biochemical; details: means ± SD, n = 3; read-out: AChE Inhibition IC50 (converted)
T2 construct: purchased Sigma-Aldrich Chem. Co. (St. Louis, MO, USA)
Method: as §3, §4

[3] = system: A549, SW1573, HBL-100, T-47D, HeLa, WiDr; assay: Antiproliferative activity (SRB), panel of six human solid tumor cell lines; format: cell-based; details: 48 h, read-out: GI50 range over all cell lines
Method: as §1, §2

HeLa cells = assay: Label-free continuous live-cell imaging, apoptosis kinetics (LCDA); format: cell-based, human; details: 20 h exposure, 1 at 80 µM, 2 at 50 µM
Method: The imaging platform microscope CX-A (Nanolive SA, Lausanne, Switzerland) was used to get refractive indexes (RIs), creating a holotomographic 3D image of the cells. HeLa cells were employed at a density of 50,000 cells/well onto an IBIDI μ-Dish, 35 mm high (IBIDI, Gräfelfing, Munich, Germany) and treated with compounds 1 and 2 right before the acquisition of the images at a dose of 80 µM and 50 µM, respectively. Data obtained were transferred to FIJI (NIH, Bethesda, MD, USA) for image analysis. The LIVE Cell Death Assay (LCDA) software (Nanolive SA) was used for the analysis of the RIs and for obtaining apoptosis kinetics.

Radical DPPH inhibition = format: biochemical; details: mean ± SD, n = 3
Method: The radical DPPH inhibition was performed by mixing thoroughly 150 µL of DPPH 400 μM with 50 µL of the sample or positive control, the 96-well microplate was kept protected from the light, and after half hour of reaction, the absorbance was recorded at 515 nm in a Synergy HTX microplate reader [13, 16]. All the measurements were performed in triplicate. The data are expressed as IC50 in µg of extract or standard per mL and reported as the mean ± SD. The determination of the IC50 was performed using linear regression. Methanol was employed as a negative control and BHT as a positive control. The percentage of DPPH radical inhibition was calculated according to the following equation: Percentage of radical inhibition (%)=(1−A−As/ADPPH)×100
A: is the absorbance of the mixture of extract and radical, As: is the absorbance of the methanol and extract, and ADDPH: is the absorbance of the radical work solution.

MCF-7 = system: MCF-7; set-up: method as in doi:10.1016/j.indcrop.2015.06.033; details: 24 h of drug exposure; read-out: IC50 cell growth inhibition MCF-7; cited from earlier work
[4] = ABTS•+ scavenging capacity; format: biochemical; details: mean ± SD, n = 3
Method: The ABTS^•+ radical scavenging assay was employed to determine the antioxidant activity of G. pinifolium conventional extracts; the radical solution was prepared 16 h before the measurements mixing 7 mM ABTS and 2.45 mM K2S2O8, and the solution was stored protected from the light at room temperature until the ABTS radical formation. For the assay, were mixed 250 µL of ABTS radical with an increasing concentration of sample or positive control (Trolox), and after half an hour, the absorbance was measured at 734 nm with a Synergy HTX microplate reader. The results are expressed as IC50 in µg of extract or Trolox per mL. The percentage of radical inhibition formula was employed for the ABTS inhibition calculation, then the IC50 was calculated through linear regression (concentration vs. inhibition percentage), and the data is reported as the mean ± SD.

T1 sequence (P81908 whole entry): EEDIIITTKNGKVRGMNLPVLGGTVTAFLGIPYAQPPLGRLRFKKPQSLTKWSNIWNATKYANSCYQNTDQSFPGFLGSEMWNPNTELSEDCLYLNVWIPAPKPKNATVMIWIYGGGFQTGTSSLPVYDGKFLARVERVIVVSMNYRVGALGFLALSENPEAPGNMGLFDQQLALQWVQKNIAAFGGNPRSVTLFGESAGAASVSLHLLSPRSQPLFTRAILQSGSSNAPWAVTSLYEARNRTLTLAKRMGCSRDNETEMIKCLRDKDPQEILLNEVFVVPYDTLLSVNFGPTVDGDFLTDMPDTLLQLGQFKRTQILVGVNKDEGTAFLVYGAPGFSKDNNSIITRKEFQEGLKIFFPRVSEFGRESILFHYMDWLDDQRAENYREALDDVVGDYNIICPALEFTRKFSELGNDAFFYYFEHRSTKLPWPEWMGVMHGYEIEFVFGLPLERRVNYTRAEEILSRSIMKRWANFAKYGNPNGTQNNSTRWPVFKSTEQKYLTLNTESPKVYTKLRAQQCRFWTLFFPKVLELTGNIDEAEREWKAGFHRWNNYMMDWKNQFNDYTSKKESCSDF
T2 sequence (O42275 24-633): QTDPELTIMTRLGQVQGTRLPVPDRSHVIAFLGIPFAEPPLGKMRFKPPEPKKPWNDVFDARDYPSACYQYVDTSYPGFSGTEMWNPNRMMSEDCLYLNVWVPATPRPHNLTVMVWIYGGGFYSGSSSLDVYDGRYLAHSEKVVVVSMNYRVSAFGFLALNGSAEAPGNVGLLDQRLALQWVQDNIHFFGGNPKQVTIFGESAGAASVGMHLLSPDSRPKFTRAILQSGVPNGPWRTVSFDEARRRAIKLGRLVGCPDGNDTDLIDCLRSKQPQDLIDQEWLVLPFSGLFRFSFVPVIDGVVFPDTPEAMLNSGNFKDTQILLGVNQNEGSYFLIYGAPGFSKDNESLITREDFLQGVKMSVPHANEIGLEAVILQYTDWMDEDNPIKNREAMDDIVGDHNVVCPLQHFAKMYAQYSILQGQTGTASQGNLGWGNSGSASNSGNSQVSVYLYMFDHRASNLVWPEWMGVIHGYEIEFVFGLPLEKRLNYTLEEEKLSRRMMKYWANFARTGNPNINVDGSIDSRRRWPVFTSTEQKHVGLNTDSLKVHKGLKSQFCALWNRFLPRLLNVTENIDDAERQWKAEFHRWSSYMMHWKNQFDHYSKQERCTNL

SMILES	TGI (total growth inhibition) against HeLa cells (HeLa cells (cervix))	LC50 (50% lethal concentration) (HeLa cells (cervix); Homo sapiens, HeLa)	GI50 (HeLa cells (cervix); Homo sapiens, HeLa)	GI50 (HBL-100 cells (breast); Homo sapiens, HBL-100, 48 h)	relaxation effect in aortic rings (intact rat aorta)	IC50 [1]	IC50 [2]	GI50 (SW1573 cells (lung); Homo sapiens, SW1573, 48 h)	GI50 (WiDr cells (colon); Homo sapiens, WiDr)	GI50 (A549 cells (lung); Homo sapiens, A549, 48 h)	GI50 (T-47D cells (breast); Homo sapiens, T47D)	further results
N.N.[Cl][Pt][Cl] [Cisplatin, reference compound]												GI50 (HeLa cells (cervix)): 1.8 ± 0.5 µM; GI50 (HBL-100 cells (breast); 48 h): 1.9 ± 0.2 µM; GI50 (SW1573 cells (lung); 48 h): 2.7 ± 0.4 µM; GI50 (WiDr cells (colon)): 23 ± 4.3 µM; GI50 (A549 cells (lung); 48 h): 4.9 ± 0.2 µM; GI50 (T-47D cells (breast)): 17 ± 3.3 µM
CC1=C(CC/C(C)=C/CO)[C@]2(C)CCCC(C)(C)C2CC1 (stereo partly drawn) [Compound 2, ent-labda-8,13-E-diene-15-ol]	46 ± 0.3 µM	69 ± 27 µM	4.8 ± 0.3 µM	10 ± 1.3 µM	slight relaxation effect; also recorded: do not cause vascular relaxation; also recorded: no vascular relaxation	63.1 µM	18.8 µM	5.4 ± 0.6 µM	9 ± 3.4 µM	4.5 ± 0.1 µM	5.1 ± 0.3 µM	GI50 [3]: 4.5 to 10 µM; apoptosis kinetics (onset of cell death) (HeLa cells): induce death in HeLa cells earlier than coumarin 1
Cc1cc(C(C)(C)C)c(O)c(C(C)(C)C)c1 [BHT]												DPPH IC50 (Radical DPPH inhibition): 25.09 ± 0.55 μg per mL
CC1=C(C(=O)CC(C)C)O[C@@H](CC(=O)c2c(C)cccc2O)[C@H]2[C@@H]1CC[C@@H]2C [Compound 1, 2-nor-1,2-secolycoserone]	82 ± 4.5 µM	> 100 µM	21 ± 4.5 µM	31 ± 0.3 µM	slight relaxation effect; also recorded: do not cause vascular relaxation	29.2 µM	3.15 µM	25 ± 5.6 µM	36 ± 4.1 µM	23 ± 7.2 µM	30 ± 0.1 µM	IC50 (MCF-7): 15 µM
Cc1c(C)c2c(c(C)c1O)CCC(C)(C(=O)O)O2 (racemic) [Trolox, (±)-6-Hydroxy-2,5,7,8-tetramethylchromane-2-carboxylic acid]												ABTS IC50 [4]: 2.33 ± 0.11 μg per mL
